The text below walks through data of patent EP0897923A1, “BENZOQUINOLIZINE DERIVATIVES AND MEDICINAL COMPOSITIONS” (priority 1996, dated 1997).

Assay type in all cases: in vivo
Data set [1] concerns SD rats. Nature of the data set: Effect on an IBS model (3): water avoidance stress, number of fecal pellets, oral administration. The settings on record: number of fecal pellets in one hour, male SD rats. As to the method: Six-week-old male SD rats were used in groups of 8 individuals. In accordance with the method of Enck et al. (Gut, 1989; 30:455-459), animals in the control group and treatment groups were loaded with water avoidance stress, while those in the normal groups were not loaded and the number of fecal pellets during the subsequent one-hour period was determined. In the treatment groups, a predetermined dose of the corresponding test drug was administered orally 60 minutes before stress loading. As reference control drugs, Compound A and Compound B mentioned above were used. The inhibition rate (%) was calculated by means of the following equation. Inhibition rate (%) = [(NC-ND)/(NC-NN)] x 100 [formula] where NC represents the number of the fecal pellets in the control group, ND represents the number of the fecal pellets in the treatment group, and NN represents the number of the fecal pellets in the normal group. Statistical significance of the treatment group versus the control group was tested by Dunnett's multiple comparison.

For data set [2], the system named is SD rats. The data set is described as follows: Effect on an IBS model (2): wrap-restraint stress, weight of fecal pellets, oral administration. The settings on record: for Inhibition (%) vs. control: weight of fecal pellets in one hour, male SD rats; for defecation accelerated by stress: result in words, summary of Test Examples 2 and 3, oral dose levels 10 and 30 mg/kg. On the procedure:
Six-week-old male SD rats, non-fasted, were used in groups of 8 individuals. In accordance with the method of Williams et al. (Gastroenterology, 1988; 94:611-621), animals in the control group and treatment groups were loaded with a wrap-restraint stress while those in the normal group were not loaded and weight (g) of the fecal pellets in the subsequent one-hour period was determined. In the treatment groups, a predetermined dose of the corresponding test drug was administered orally 60 minutes before stress loading. As reference control drugs, N-methyl-N-[(2RS,11bSR)-1,3,4,6,7,11b-hexahydro-2H-benzo[a]quinolizin-2-yl]propanesulfonamide hydrochloride (hereinafter referred to as Compound A) and N-(2-methanesulfonamidoethyl)-N-[(2RS,11bSR)-1,3,4,6,7,11b-hexahydro-2H-benzo[a]quinolizin-2-yl]benzenesulfonamide hydrochloride (hereinafter referred to as compound B), both of which are described in Japanese Laid-open S62-67031 as having gastrointestinal peristalsis-modulating activity were used. The inhibition rate (%) was calculated by means of the following equation. Inhibition rate = [(C-D)/(C-N)] x 100 [formula] where C represents the weight of the fecal pellets in the control group, D represents the weight of the fecal pellets in the treatment group, and N represents the weight of the fecal pellets in the normal group. Statistical significance of the treatment group versus the control group was tested by Dunnett's multiple comparison.

Data set [3] deals with SD rats. The data set is described as follows: Effect on an IBS model (1): wrap-restraint stress, weight of fecal pellets, subcutaneous administration. The following applies: 3 mg/kg subcutaneously 30 minutes before wrap-restraint stress, weight of fecal pellets in one hour, male SD rats. As to the method:
Six-week-old male SD rats, non-fasted, were used in groups of 8 individuals. In accordance with the method of Williams et al. (Gastroenterology, 1988; 94:611-621), animals in the control group and treatment groups were loaded with a wrap-restraint stress while those in the normal group were not loaded and weight (g) of fecal pellets in the subsequent one-hour period was determined. In the treatment groups, a predetermined dose of the corresponding test drug was administered subcutaneously 30 minutes before stress loading. The inhibition rate (%) was calculated by means of the following equation. Inhibition rate = [(C-D)/(C-N)] x 100 [formula] where C represents the weight of the fecal pellets in the control group, D represents the weight of the fecal pellets in the treatment group, and N represents the weight of the fecal pellets in the normal group. Statistical significance of the treatment group versus the control group was tested by Dunnett's multiple comparison.

Data set [4] relates to ddY mice. Nature of the data set: Acute toxicity test. The following applies: fasted male ddY mice, deaths during one week. As to the method:
Six-week-old male ddY mice were used in groups of 5 individuals. The animals were fasted from the previous day (16-18 hours before the experiment) and a predetermined dose of the compound of the invention was administered orally. The number of deaths during the subsequent one-week period was investigated.

[5] abbreviates: 30 mg/kg orally 60 minutes before water avoidance stress.
Setting [6] is: 10 mg/kg orally 60 minutes before wrap-restraint stress.
The mark [7] stands for this setting: 30 mg/kg orally 60 minutes before wrap-restraint stress.
Setting [8] is: 10 mg/kg orally 60 minutes before wrap-restraint stress, hydrochloride.

Structures are written as SMILES. Marks after values point to notes of the source that are not given here.

Take `CCCS(=O)(=O)N(C)[C@@H]1CCN2CCc3ccccc3[C@@H]2C1.Cl` (racemic) [Compound A, N-methyl-N-[(2RS,11bSR)-1,3,4,6,7,11b-hexahydro-2H-benzo[a]quinolizin-2-yl]propanesulfonamide hydrochloride, reference compound]: the “Inhibition (%) vs. control” value in data set [1] (setting [5]) is -20.7%; in data set [2] (setting [6]) it was -1.2%; in data set [2] (setting [7]), 1.4%. Moreover, the “defecation accelerated by stress” value in data set [2] is given as “did not inhibit defecation accelerated by stress”.
Turning to `CS(=O)(=O)NCCN([C@@H]1CCN2CCc3ccccc3[C@@H]2C1)S(=O)(=O)c1ccccc1.Cl` (racemic) [Compound B, N-(2-methanesulfonamidoethyl)-N-[(2RS,11bSR)-1,3,4,6,7,11b-hexahydro-2H-benzo[a]quinolizin-2-yl]benzenesulfonamide hydrochloride, reference compound], the figures for the “Inhibition (%) vs. control” value in data set [1] (setting [5]), in data set [2] (setting [6]) and in data set [2] (setting [7]) were -58.3%, -4.7% and -30.0%, respectively. In data set [2], the “defecation accelerated by stress” value is “did not inhibit defecation accelerated by stress”.
Consider `COc1ccc2c(c1)CCN1CC[C@@H](N(C)S(C)(=O)=O)C[C@@H]21.Cl` (racemic) [Compound No. 1, N-Methyl-N-[(2RS,11bSR)-9-methoxy-1,3,4,6,7,11b-hexahydro-2H-benzo[a]quinolizin-2-yl]methanesulfonamide hydrochloride], for which the “Inhibition (%) vs. control” value in data set [1] (setting [5]) is 81.8* %; in data set [2] (setting [8]) it was 53.2* %; in data set [2] (setting [7]), 96.6** %; in data set [3] (hydrochloride), 97.7** %. The Dead/Total in data set [4] (100 mg/kg orally) is reported as 0/5.
For the molecule `COc1ccc(S(=O)(=O)N(C)[C@@H]2CCN3CCc4cc(OC)ccc4[C@@H]3C2)cc1.Cl` (racemic) [Compound No. 6, N-Methyl-N-[(2RS,11bSR)-9-methoxy-1,3,4,6,7,11b-hexahydro-2H-benzo[a]quinolizin-2-yl]-4-methoxybenzenesulfonamide hydrochloride], the “Inhibition (%) vs. control” value in data set [3] is listed as 86.2** %. In addition, the Dead/Total in data set [4] (100 mg/kg orally) was 0/5.
Take `COc1ccc2c(c1)CCN1CC[C@@H](N(C)S(=O)(=O)c3ccccc3)C[C@@H]21.Cl` (racemic) [Compound No. 7, N-methyl-N-[(2RS,11bSR)-9-methoxy-1,3,4,6,7,11b-hexahydro-2H-benzo[a]quinolizin-2-yl]benzenesulfonamide hydrochloride]: the “Inhibition (%) vs. control” value in data set [3] is 76.6** %.
On the same count and under the same terms, next, `COc1ccc2c(c1)CCN1CC[C@@H](N(C)S(=O)(=O)c3ccc(F)cc3)C[C@@H]21.Cl` (racemic) [Compound No. 13, N-methyl-N-[(2RS,11bSR)-9-methoxy-1,3,4,6,7,11b-hexahydro-2H-benzo[a]quinolizin-2-yl]-4-fluorobenzenesulfonamide hydrochloride]: 72.4** %; `COc1ccc2c(c1)CCN1CC[C@@H](N(C)S(=O)(=O)c3cc(OC)ccc3OC)C[C@@H]21.Cl` (racemic) [Compound No. 14, N-methyl-N-[(2RS,11bSR)-9-methoxy-1,3,4,6,7,11b-hexahydro-2H-benzo[a]quinolizin-2-yl]-2,5-dimethoxybenzenesulfonamide hydrochloride]: 75.6** %.
For the molecule `COc1ccc2c(c1)CCN1CC[C@@H](N(C)S(=O)(=O)N(C)C)C[C@@H]21.Cl` (racemic) [Compound No. 16, N,N-Dimethyl-N'-[(2RS-11bSR)-9-methoxy-1,3,4,6,7,11b-hexahydro-2H-benzo[a]quinolizin-2-yl]-N'-methylsulfamide hydrochloride], the “Inhibition (%) vs. control” value in data set [2] (setting [6]) is reported as 73.3** %; in data set [2] (setting [7]), 91.7** %. The Dead/Total in data set [4] (300 mg/kg orally) is recorded as 0/5.
Regarding `COc1ccc2c(c1)CCN1CC[C@@H](N(C)S(C)(=O)=O)C[C@@H]21.Cl` [Compound No. 18, N-Methyl-N-[(2R,11bS)-9-methoxy-1,3,4,6,7,11b-hexahydro-2H-benzo[a]quinolizin-2-yl]methanesulfonamide hydrochloride], the “Inhibition (%) vs. control” value was 72.4* % in data set [1] (3 mg/kg orally 60 minutes before water avoidance stress), 82.9** % in data set [1] (10 mg/kg orally 60 minutes before water avoidance stress), 91.1** % in data set [2] (setting [8]) and 96.6** % in data set [3] (hydrochloride). In data set [4] (250 mg/kg orally), the Dead/Total is listed as 0/5.
`CCS(=O)(=O)N(C)[C@@H]1CCN2CCc3cc(OC)ccc3[C@@H]2C1.Cl` [Compound No. 20, N-Methyl-N-[(2R,11bS)-9-methoxy-1,3,4,6,7,11b-hexahydro-2H-benzo[a]quinolizin-2-yl]ethanesulfonamide hydrochloride]: the “Inhibition (%) vs. control” value in data set [2] (setting [6]) is given as 69.4** %; in data set [2] (setting [7]) it was 88.9** %.
On to `CCN([C@@H]1CCN2CCc3cc(OC)ccc3[C@@H]2C1)S(C)(=O)=O.Cl` [Compound No. 21, N-Ethyl-N-[(2R,11bS)-9-methoxy-1,3,4,6,7,11b-hexahydro-2H-benzo[a]quinolizin-2-yl]methanesulfonamide hydrochloride], for which the figures for the “Inhibition (%) vs. control” value in data set [2] (setting [6]) and in data set [2] (setting [7]) were 64.6** % and 92.6** %, respectively. Also, in data set [4] (250 mg/kg orally), the Dead/Total is recorded as 0/5.
